Reference: US20100254940A1, “Compositions and Methods for Regulating an Immune Response in a Subject” (INNATE PHARMA, S.A., priority 2002, published 2010)
Where “and” joins values, the source holds several entries; their conditions need not be identical. Equal entries are not always repeated.

What was measured:
γδ T cell = test: In vitro TNFα release assay, γδ T cell amplification from human PBMCs (in the presence of rhIL2); assay type: cell-based; details: TNFα release assay; human PBMCs, rhIL2
Method: The in vitro biological activity of γδ T cell amplification from human PBMCs (in the presence of rhIL2) was assessed using a TNFα release assay.
Cytokine secretion and cytolytic activity can be assessed using any appropriate in vitro assay, or those provided in the examples herein. For example, cytokine secretion can be determined according to the methods described in Espinosa et al. (J. Biol. Chem., 2001, Vol. 276, Issue 21, 18337-18344), describing measurement of TNF-α release in a bioassay using TNF-α-sensitive cells. Briefly, 10^4 γδT cells/well were incubated with stimulus plus 25 units of IL2/well in 100 μl of culture medium during 24 h at 37° C. Then, 50 μl of supernatant were added to 50 μl of WEHI cells plated at 3×10^4 cells/well in culture medium plus actinomycin D (2 μg/ml) and LiCl (40 mM) and incubated for 20 h at 37° C. Viability of the TNF-α-sensitive cells and measured with a 3-(4,5-dimethylthiazol-2-yl)-2,5-diphenyltetrazolium bromide assay. 50 μl of 3-(4,5-dimethylthiazol-2-yl)-2,5-diphenyltetrazolium bromide (Sigma; 2.5 mg/ml in phosphate-buffered saline) per well were added, and after 4 h of incubation at 37° C., 50 μl of solubilization buffer (20% SDS, 66% dimethyl formamide, pH 4.7) were added, and absorbance (570 nm) was measured. Levels of TNF-α release were then calculated from a standard curve obtained using purified human rTNF-α (PeproTech, Inc., Rocky Hill, N.J.). Interferon-γ released by activated T cells was measured by a sandwich enzyme-linked immunosorbent assay. 5×10^4 γδT cells/well were incubated with stimulus plus 25 units of IL2/well in 100 μl of culture medium during 24 h at 37° C. Then, 50 μl of supernatant were harvested for enzyme-linked immunosorbent assay using mouse monoclonal antibodies (BIOSOURCE, Camarillo, Calif.). […]
BrHPP and HDMAPP bioactivity were compared using in vitro and in vivo assays. The in vitro biological activity of γδ T cell amplification from human PBMCs (in the presence of rhIL2) was assessed using a TNFα release assay.

Vg9Vd2 T cells = test: Peripheral Vg9Vd2 T cell expansion in cynomolgus monkeys by flow cytometry (BrHPP non-GLP studies); assay type: in vivo, cynomolgus monkeys (M. fascicularis); details: for Absolute increase of Vg9Vd2: individual animals
Method: • Group 1: 5 purpose bred healthy male cynomolgus monkeys (M. fascicularis), supplied by C.R.P. Le Vallon, Ferney S.E., Mahebourg, Mauritius. At the beginning of the study, body weights range from 3.7 to 4.6 kg. • Group 2: 10 purpose bred healthy cynomolgus monkeys (5 males and 5 females), supplied by C.R.P. Le Vallon. At the beginning of the study, body weights range from 1.8 to 3.5 kg and ages from 2 to 3 years.
• Group 1: animals were anaesthetised with intra-muscular injection of 6 mg/kg ZoletilND 100 (Tiletamine-Zolazepam, Virbac, Carros, France) before any injection or blood taking. • Group 2: injections and blood taking were performed on manually restrained non-anaesthetised animals. • 4-day BrHPP alone treatment (group 1): 2 animals received 1 mg/kg of BrHPP in 10 ml saline on day 0 (microflex infusion set introduced into the external saphenous vein) and then 4 mg/kg, 16 mg/kg and 32 mg/kg in 20 ml saline on days 1, 2 and 3 by the same way. (Duration of infusion: 10 to 15 min). • BrHPP/IL2 co-treatments (group 1): 5 animals received either 20 mg/kg once or 4 mg/kg (16.7 mg/kg or 3.3 mg/kg of BrHPP anionic form) 5 times daily of BrHPP in final 50 ml saline by the same way as above (duration of infusion: 30 min). IL2 (18 million UI per vial, Proleukin®, Chiron, US) was resuspended in 1 ml sterile water and diluted to 10 ml with 4% HSA for a final concentration of 1.8 million UI/ml. In a first cycle of treatment, all animals received the same dose of IL2 consisting of 5 days of twice daily injections of 0.9 million units IL2. In a second cycle of treatment, animals received subcutaneously the following IL2 treatment: 0.15 million units twice daily for 9 days (animal Z059), 0.3 million units twice daily for 5 days (Z135), 0.9 million units twice daily for 5 days (animal Z714) or 9 days (animal X973).
A single animal received 80 mg/kg (66.6 mg/kg anionic form) BrHPP+9 days of IL2 co-treatment consisting of a single daily subcutaneous injection of 0.6 million units. • BrHPP/IL2 co-treatments (group 2): BrHPP was diluted in saline to the appropriate final concentration (depending on the dose to inject and on the last recorded body weight) so as to inject always approximately 50 ml in 30 min (microflex infusion set introduced into cephalic or external saphenous vein). All animals received 0.6 million IU IL2 per day for 7 days. IL2 was administered subcutaneously as 2 separate injections of 0.3 million IU IL2 in sterile water, 8-hour apart. Control animals received IL2 only.
Twice weekly blood samples (1 to 4 ml) were withdrawn from femoral vessels/artery into EDTA containing tubes. Tubes were shipped overnight at room temperature (RT) before flow cytometry analyses.
Peripheral γδ lymphocytes were analysed twice weekly by flow cytometry on total monkey blood, after double staining with anti-CD3-PE antibody and anti-Vgamma9-FITC antibodies and/or anti Vd2 antibodies (CD3-PE: SP34 clone, BD Biosciences Pharmingen, Le Pont de Claix, France). Anti Vgamma 9, clone 7B6 is a monoclonal raised to human Vgamma 9 but that cross-reacts with cynomolgus cells. It was purified by affinity chromatography on protein A and coupled to FITC as previously described.
Briefly, 50 μl monkey blood is incubated 15 min at RT with 5 μl anti-CD3-PE and 6 μl anti-delta2-FITC or 10 μl anti-gamma9-FITC antibodies. Antibodies are washed with 3 ml 1×PBS, centrifuged for 4 min at 1300 rpm at RT and supernatant is discarded. Red cells are lysed with the OptiLyse C reagent (Immunotech-Beckman-Coulter, Marseilles, France) according to the manufacturer's instructions. At the final step, stained white blood cells are recovered by centrifugation and resuspended in 300 μl PBS+0.2% PFA.

[1] = highest concentration (160 mg/kg), second injection + IL2

Substance: 3-(bromomethyl)-3-butanol-1-yl-diphosphate [BrHPP]
- EC50 (γδ T cell): ~30 nM
- % and absolute numbers of Vg9Vd2 (Vg9Vd2 T cells; 0.2 mg/kg + IL2 7 days): undistinguishable from the control animals
- peak of increase in peripheral γδ cells (Vg9Vd2 T cells; 20 mg/kg once or 4 mg/kg x 5 + IL2, group 1): 7 days
- % and absolute numbers of Vg9Vd2 (Vg9Vd2 T cells; 4 to 80 mg/kg + IL2, day 7): A dose range effect was observed
- expansion at recall (Vg9Vd2 T cells; first 20 mg, then 80 mg): expansions comparable to animals treated with 80 mg/kg at the first injection
- expansion at recall (Vg9Vd2 T cells; first 80 mg/kg, then 20 mg/kg, vs first injection at 20 mg/kg): decreased expansion
- % of Vg9Vd2 (Vg9Vd2 T cells; five daily injection of 0.2 mg/kg BrHPP alone, 4 monkeys): expansion was not significant
- Follow up of Vg9Vd2 (Vg9Vd2 T cells; four daily injections 1, 4, 16, 32 mg/kg BrHPP alone, two animals): a decrease at day two post first injection
- increase of Vg9Vd2 (Vg9Vd2 T cells; fourth injection of 80 mg/kg BrHPP and IL2, five animals): detectable increase of Vg9Vd2 although lower than that obtained in the third injection
- absolute numbers of Vg9Vd2 (mean) (Vg9Vd2 T cells; [1]): 10,000 Vg9Vd2 cells/mm3
- level of circulating Vg9Vd2 among circulating CD3 positive cells (Vg9Vd2 T cells; [1]): about 80%
- Absolute increase of Vg9Vd2 (Vg9Vd2 T cells; same dose split in 5 daily injections of 4 mg/kg + IL2 5 days, 4 mg/kg): 8 × and 18 ×
- amplification rate at the second injection vs first (Vg9Vd2 T cells; second single shot 20 mg/kg + IL2, animals with 5 daily 4 mg/kg at first injection): slightly higher amplification rate
- amplification rate in the second injection vs first (Vg9Vd2 T cells; second single shot 20 mg/kg + IL2, animals with single shot at first injection): slightly reduced amplification rate
- Absolute increase of Vg9Vd2 (Vg9Vd2 T cells; single dose 20 mg/kg + IL2 5 days, 20 mg/kg): 30 × and 40 ×
- increase of Vγ9Vδ2 (Vg9Vd2 T cells; third cycle 80 mg/kg + IL2, control animal which received only IL2 in first two courses): around 40
- increase of Vγ9Vδ2 at the third injection (Vg9Vd2 T cells; third injection 80 mg/kg + IL2, animal 2034): 28 ×
- amplification of Vγ9Vδ2 (Vg9Vd2 T cells; third injection 80 mg/kg + IL2, three other animals): lower than 40
- mean increase of peripheral γδ cell number (Vg9Vd2 T cells; total amount of 20 mg/kg BrHPP + IL2, day 7): 24 fold
